Columns and labels:
[1] = tested on: wheat mature dried grain of the cultivar Bobwhite; assay: Effect of D-amino acids on germination of wheat mature dried grain (Bobwhite); format: in vivo, Triticum aestivum; settings: n = 15
Protocol: (§1) A range of concentrations of the D-amino acids D-serine and D-alanine were tested for effects on wheat regeneration and germination from embryos derived from mature dried grain of the cultivar Bobwhite.

[2] = tested on: wheat mature dried grain of the cultivar Ventura; assay: Effect of D-amino acids on germination of wheat mature dried grain (Ventura); format: in vivo; settings: n = 15
Protocol: [Worded in the source for another variant; this variant is reported under the same test.] as §1

[3] = tested on: wheat embryos derived from mature dried grain of the cultivar Bobwhite; assay: Effect of D-amino acids on regeneration of wheat from embryos of mature dried grain (Bobwhite); format: cell-based, Triticum aestivum; settings: for proportion (%) of explants regenerating after 3 weeks, Average / proportion (%) of explants regenerating after 3 weeks, Experiment number 1 / proportion (%) of explants regenerating after 3 weeks, Experiment number 2 / proportion (%) of explants regenerating after 3 weeks, Experiment number 3: n = 20
Protocol: as §1

[4] = tested on: wheat embryos derived from mature dried grain of the cultivar Ventura; assay: Effect of D-amino acids on regeneration of wheat from embryos of mature dried grain (Ventura); format: cell-based; settings: n = 20

Structure (SMILES): C[C@@H](N)C(=O)O [D-alanine]
- proportion (%) of explants germinated after 1 week, Average ([1]; 0.5 mM): 77%
- proportion (%) of explants germinated after 1 week, Experiment Number 1 ([1]; 0.5 mM): 55%
- proportion (%) of explants germinated after 1 week, Experiment Number 2 ([1]; 0.5 mM): 75%
- proportion (%) of explants germinated after 1 week, Experiment Number 3 ([1]; 0.5 mM): 100%
- proportion (%) of explants germinated after 1 week, Average ([1]; 1 mM): 77%
- proportion (%) of explants germinated after 1 week, Experiment Number 1 ([1]; 1 mM): 70%
- proportion (%) of explants germinated after 1 week, Experiment Number 2 ([1]; 1 mM): 80%
- proportion (%) of explants germinated after 1 week, Experiment Number 3 ([1]; 1 mM): 80%
- proportion (%) of explants germinated after 1 week, Average ([1]; 3 mM): 73%
- proportion (%) of explants germinated after 1 week, Experiment Number 1 ([1]; 3 mM): 70%
- proportion (%) of explants germinated after 1 week, Experiment Number 2 ([1]; 3 mM): 70%
- proportion (%) of explants germinated after 1 week, Experiment Number 3 ([1]; 3 mM): 80%
- proportion (%) of explants germinated after 1 week, Average ([1]; 5 mM): 62%
- proportion (%) of explants germinated after 1 week, Experiment Number 1 ([1]; 5 mM): 50%
- proportion (%) of explants germinated after 1 week, Experiment Number 2 ([1]; 5 mM): 85%
- proportion (%) of explants germinated after 1 week, Experiment Number 3 ([1]; 5 mM): 50%
- proportion (%) of explants germinated after 1 week, Average ([1]; 10 mM): 28%
- proportion (%) of explants germinated after 1 week, Experiment Number 1 ([1]; 10 mM): 10%
- proportion (%) of explants germinated after 1 week, Experiment Number 2 ([1]; 10 mM): 35%
- proportion (%) of explants germinated after 1 week, Experiment Number 3 ([1]; 10 mM): 40%
- germination: proportion (%) of explants regenerating after 1 week, Average ([2]; 0.5 mM): 73%
- germination: proportion (%) of explants regenerating after 1 week, Experiment number 1 ([2]; 0.5 mM): 65%
- germination: proportion (%) of explants regenerating after 1 week, Experiment number 2 ([2]; 0.5 mM): 65%
- germination: proportion (%) of explants regenerating after 1 week, Experiment number 3 ([2]; 0.5 mM): 90%
- germination: proportion (%) of explants regenerating after 1 week, Average ([2]; 1 mM): 75%
- germination: proportion (%) of explants regenerating after 1 week, Experiment number 1 ([2]; 1 mM): 75%
- germination: proportion (%) of explants regenerating after 1 week, Experiment number 2 ([2]; 1 mM): 75%
- germination: proportion (%) of explants regenerating after 1 week, Experiment number 3 ([2]; 1 mM): 75%
- germination: proportion (%) of explants regenerating after 1 week, Average ([2]; 3 mM): 75%
- germination: proportion (%) of explants regenerating after 1 week, Experiment number 1 ([2]; 3 mM): 80%
- germination: proportion (%) of explants regenerating after 1 week, Experiment number 2 ([2]; 3 mM): 65%
- germination: proportion (%) of explants regenerating after 1 week, Experiment number 3 ([2]; 3 mM): 80%
- germination: proportion (%) of explants regenerating after 1 week, Average ([2]; 5 mM): 67%
- germination: proportion (%) of explants regenerating after 1 week, Experiment number 1 ([2]; 5 mM): 70%
- germination: proportion (%) of explants regenerating after 1 week, Experiment number 2 ([2]; 5 mM): 55%
- germination: proportion (%) of explants regenerating after 1 week, Experiment number 3 ([2]; 5 mM): 75%
- germination: proportion (%) of explants regenerating after 1 week, Average ([2]; 10 mM): 47%
- germination: proportion (%) of explants regenerating after 1 week, Experiment number 1 ([2]; 10 mM): 65%
- germination: proportion (%) of explants regenerating after 1 week, Experiment number 2 ([2]; 10 mM): 30%
- germination: proportion (%) of explants regenerating after 1 week, Experiment number 3 ([2]; 10 mM): 45%
- germination: proportion (%) of explants regenerating after 1 week, Average ([2]; 20 mM): 5%
- germination: proportion (%) of explants regenerating after 1 week, Experiment number 1 ([2]; 20 mM): 5%
- germination: proportion (%) of explants regenerating after 1 week, Experiment number 2 ([2]; 20 mM): 25%
- germination: proportion (%) of explants regenerating after 1 week, Experiment number 3 ([2]; 20 mM): 40%
- proportion (%) of explants regenerating after 3 weeks, Average ([3]; 0.5 mM): 20%
- proportion (%) of explants regenerating after 3 weeks, Experiment number 1 ([3]; 0.5 mM): 30%
- proportion (%) of explants regenerating after 3 weeks, Experiment number 2 ([3]; 0.5 mM): 30%
- proportion (%) of explants regenerating after 3 weeks, Experiment number 3 ([3]; 0.5 mM): 0%
- proportion (%) of explants regenerating after 3 weeks, Average ([3]; 1 mM): 20%
- proportion (%) of explants regenerating after 3 weeks, Experiment number 1 ([3]; 1 mM): 35%
- proportion (%) of explants regenerating after 3 weeks, Experiment number 2 ([3]; 1 mM): 21%
- proportion (%) of explants regenerating after 3 weeks, Experiment number 3 ([3]; 1 mM): 5%
- proportion (%) of explants regenerating after 3 weeks, Average ([3]; 3 mM): 15%
- proportion (%) of explants regenerating after 3 weeks, Experiment number 1 ([3]; 3 mM): 20%
- proportion (%) of explants regenerating after 3 weeks, Experiment number 2 ([3]; 3 mM): 25%
- proportion (%) of explants regenerating after 3 weeks, Experiment number 3 ([3]; 3 mM): 0%
- proportion (%) of explants regenerating after 3 weeks, Average ([3]; 5 mM): 3%
- proportion (%) of explants regenerating after 3 weeks, Experiment number 1 ([3]; 5 mM): 5%
- proportion (%) of explants regenerating after 3 weeks, Experiment number 2 ([3]; 5 mM): 5%
- proportion (%) of explants regenerating after 3 weeks, Experiment number 3 ([3]; 5 mM): 0%
- proportion (%) of explants regenerating after 3 weeks, Average ([3]; 10 mM): 0%
- proportion (%) of explants regenerating after 3 weeks, Experiment number 1 ([3]; 10 mM): 0%
- proportion (%) of explants regenerating after 3 weeks, Experiment number 2 ([3]; 10 mM): 0%
- proportion (%) of explants regenerating after 3 weeks, Experiment number 3 ([3]; 10 mM): 0%
- levels that reduced the regeneration and germination of wheat plants ([3]; regeneration and germination (Tables 4 and 5)): > 5 mM
- proportion (%) of explants regenerating after 3 weeks, Average ([4]; 0.5 mM): 8%
- proportion (%) of explants regenerating after 3 weeks, Experiment number 1 ([4]; 0.5 mM): 10%
- proportion (%) of explants regenerating after 3 weeks, Experiment number 2 ([4]; 0.5 mM): 10%
- proportion (%) of explants regenerating after 3 weeks, Experiment number 3 ([4]; 0.5 mM): 5%
- proportion (%) of explants regenerating after 3 weeks, Average ([4]; 1 mM): 5%
- proportion (%) of explants regenerating after 3 weeks, Experiment number 1 ([4]; 1 mM): 0%
- proportion (%) of explants regenerating after 3 weeks, Experiment number 2 ([4]; 1 mM): 10%
- proportion (%) of explants regenerating after 3 weeks, Experiment number 3 ([4]; 1 mM): 5%
- proportion (%) of explants regenerating after 3 weeks, Average ([4]; 3 mM): 7%
- proportion (%) of explants regenerating after 3 weeks, Experiment number 1 ([4]; 3 mM): 10%
- proportion (%) of explants regenerating after 3 weeks, Experiment number 2 ([4]; 3 mM): 10%
- proportion (%) of explants regenerating after 3 weeks, Experiment number 3 ([4]; 3 mM): 0%
- proportion (%) of explants regenerating after 3 weeks, Average ([4]; 5 mM): 3%
- proportion (%) of explants regenerating after 3 weeks, Experiment number 1 ([4]; 5 mM): 5%
- proportion (%) of explants regenerating after 3 weeks, Experiment number 2 ([4]; 5 mM): 5%
- proportion (%) of explants regenerating after 3 weeks, Experiment number 3 ([4]; 5 mM): 0%
- proportion (%) of explants regenerating after 3 weeks, Average ([4]; 10 mM): 0%
- proportion (%) of explants regenerating after 3 weeks, Experiment number 1 ([4]; 10 mM): 0%
- proportion (%) of explants regenerating after 3 weeks, Experiment number 2 ([4]; 10 mM): 0%
- proportion (%) of explants regenerating after 3 weeks, Experiment number 3 ([4]; 10 mM): 0%
- proportion (%) of explants regenerating after 3 weeks, Average ([4]; 20 mM): 0%
- proportion (%) of explants regenerating after 3 weeks, Experiment number 1 ([4]; 20 mM): 0%
- proportion (%) of explants regenerating after 3 weeks, Experiment number 2 ([4]; 20 mM): 0%
- proportion (%) of explants regenerating after 3 weeks, Experiment number 3 ([4]; 20 mM): 0%
